Reference: PubChem BioAssay (NCI)
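Cultured in 96-well plates, cells were exposed to test compound for 48 hours across five concentrations. GI50: concentration for 50% inhibition of growth. TGI marks complete inhibition of growth.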

How the values were obtained:
Assay in all cases: inhibition of tumour cell growth, NCI panel, 48 h
786-0 renal = tested on: 786-0 renal
A498 renal = tested on: A498 renal
A549 NSCLC = tested on: A549 NSCLC
ACHN renal = tested on: ACHN renal
BT-549 breast = tested on: BT-549 breast
CAKI-1 renal = tested on: CAKI-1 renal
CCRF-CEM leukemia = tested on: CCRF-CEM leukemia
COLO 205 colon = tested on: COLO 205 colon
DU-145 prostate = tested on: DU-145 prostate
EKVX NSCLC = tested on: EKVX NSCLC
HCC-2998 colon = tested on: HCC-2998 colon
HCT-116 colon = tested on: HCT-116 colon
HCT-15 colon = tested on: HCT-15 colon
HL-60(TB) leukemia = tested on: HL-60(TB) leukemia
HOP-62 NSCLC = tested on: HOP-62 NSCLC
HOP-92 NSCLC = tested on: HOP-92 NSCLC
HS 578T breast = tested on: HS 578T breast
HT29 colon = tested on: HT29 colon
IGROV1 ovarian = tested on: IGROV1 ovarian
K-562 leukemia = tested on: K-562 leukemia
KM12 colon = tested on: KM12 colon
LOX IMVI melanoma = tested on: LOX IMVI melanoma
M14 melanoma = tested on: M14 melanoma
MALME-3M melanoma = tested on: MALME-3M melanoma
MCF7 breast = tested on: MCF7 breast
MDA-MB-231 breast = tested on: MDA-MB-231 breast
MOLT-4 leukemia = tested on: MOLT-4 leukemia
NCI-H226 lung = tested on: NCI-H226 lung
NCI-H23 lung = tested on: NCI-H23 lung
NCI-H460 lung = tested on: NCI-H460 lung
NCI-H522 lung = tested on: NCI-H522 lung
NCI/ADR-RES ovarian = tested on: NCI/ADR-RES ovarian
OVCAR-3 ovarian = tested on: OVCAR-3 ovarian
OVCAR-4 ovarian = tested on: OVCAR-4 ovarian
OVCAR-5 ovarian = tested on: OVCAR-5 ovarian
OVCAR-8 ovarian = tested on: OVCAR-8 ovarian
PC-3 prostate = tested on: PC-3 prostate
RPMI-8226 leukemia = tested on: RPMI-8226 leukemia
RXF 393 renal = tested on: RXF 393 renal
SF-268 CNS = tested on: SF-268 CNS
SF-295 CNS = tested on: SF-295 CNS
SF-539 CNS = tested on: SF-539 CNS
SK-MEL-2 melanoma = tested on: SK-MEL-2 melanoma
SK-MEL-28 melanoma = tested on: SK-MEL-28 melanoma
SK-MEL-5 melanoma = tested on: SK-MEL-5 melanoma
SK-OV-3 ovarian = tested on: SK-OV-3 ovarian
SN12C renal = tested on: SN12C renal
SNB-75 CNS = tested on: SNB-75 CNS
SR leukemia = tested on: SR leukemia
SW-620 colon = tested on: SW-620 colon
T-47D breast = tested on: T-47D breast
TK-10 renal = tested on: TK-10 renal
U251 CNS = tested on: U251 CNS
UACC-257 melanoma = tested on: UACC-257 melanoma
UACC-62 melanoma = tested on: UACC-62 melanoma
UO-31 renal = tested on: UO-31 renal
MDA-MB-435 = tested on: MDA-MB-435
SNB-19 CNS = tested on: SNB-19 CNS

C=C(c1ccc(OC)c(/C=C/C(=O)c2cc(OC)c(OC)c(OC)c2)c1)c1cc(OC)c(OC)c(OC)c1
GI50 (786-0 renal): 1.68 µM
TGI (786-0 renal): 3.7 µM
GI50 (A498 renal): 1.48 µM
TGI (A498 renal): 3.11 µM
GI50 (A549 NSCLC): 1.81 µM
TGI (A549 NSCLC): 4.51 µM
GI50 (ACHN renal): 1.26 µM
TGI (ACHN renal): 2.58 µM
GI50 (BT-549 breast): 0.894 µM
TGI (BT-549 breast): 4.22 µM
GI50 (CAKI-1 renal): 1.28 µM
TGI (CAKI-1 renal): 10.5 µM
GI50 (CCRF-CEM leukemia): 0.359 µM
TGI (CCRF-CEM leukemia): > 100 µM
GI50 (COLO 205 colon): 2.03 µM
TGI (COLO 205 colon): 4.98 µM
GI50 (DU-145 prostate): 1.32 µM
TGI (DU-145 prostate): 3.11 µM
GI50 (EKVX NSCLC): 2.23 µM
TGI (EKVX NSCLC): 9.74 µM
GI50 (HCC-2998 colon): 1.84 µM
TGI (HCC-2998 colon): 3.37 µM
GI50 (HCT-116 colon): 0.609 µM
TGI (HCT-116 colon): 1.9 µM
GI50 (HCT-15 colon): 0.552 µM
TGI (HCT-15 colon): 2.79 µM
GI50 (HL-60(TB) leukemia): 2.03 µM
TGI (HL-60(TB) leukemia): 13.4 µM
GI50 (HOP-62 NSCLC): 2.27 µM
TGI (HOP-62 NSCLC): 6.68 µM
GI50 (HOP-92 NSCLC): 1.14 µM
TGI (HOP-92 NSCLC): 6.9 µM
GI50 (HS 578T breast): 1.46 µM
TGI (HS 578T breast): 50 µM
GI50 (HT29 colon): 0.628 µM
TGI (HT29 colon): 3.15 µM
GI50 (IGROV1 ovarian): 2.07 µM
TGI (IGROV1 ovarian): 5.88 µM
GI50 (K-562 leukemia): 0.922 µM
TGI (K-562 leukemia): 10.7 µM
GI50 (KM12 colon): 1.16 µM
TGI (KM12 colon): 2.72 µM
GI50 (LOX IMVI melanoma): 0.582 µM
TGI (LOX IMVI melanoma): 1.95 µM
GI50 (M14 melanoma): 1.59 µM
TGI (M14 melanoma): 4.43 µM
GI50 (MALME-3M melanoma): 1.88 µM
TGI (MALME-3M melanoma): 4.45 µM
GI50 (MCF7 breast): 0.44 µM
TGI (MCF7 breast): 4.03 µM
GI50 (MDA-MB-231 breast): 0.995 µM
TGI (MDA-MB-231 breast): > 100 µM
GI50 (MOLT-4 leukemia): 1.61 µM
TGI (MOLT-4 leukemia): 27 µM
GI50 (NCI-H226 lung): 1.41 µM
TGI (NCI-H226 lung): 3.29 µM
GI50 (NCI-H23 lung): 1.95 µM
TGI (NCI-H23 lung): 4.9 µM
GI50 (NCI-H460 lung): 1.44 µM
TGI (NCI-H460 lung): 3.54 µM
GI50 (NCI-H522 lung): 1.1 µM
TGI (NCI-H522 lung): 5.63 µM
GI50 (NCI/ADR-RES ovarian): 0.936 µM
TGI (NCI/ADR-RES ovarian): 4.85 µM
GI50 (OVCAR-3 ovarian): 1.53 µM
TGI (OVCAR-3 ovarian): 3.18 µM
GI50 (OVCAR-4 ovarian): 3.7 µM
TGI (OVCAR-4 ovarian): > 100 µM
GI50 (OVCAR-5 ovarian): 2.07 µM
TGI (OVCAR-5 ovarian): 6.14 µM
GI50 (OVCAR-8 ovarian): 0.716 µM
TGI (OVCAR-8 ovarian): 11.9 µM
GI50 (PC-3 prostate): 1.3 µM
TGI (PC-3 prostate): 5.31 µM
GI50 (RPMI-8226 leukemia): 0.453 µM
TGI (RPMI-8226 leukemia): 3.06 µM
GI50 (RXF 393 renal): 1.11 µM
TGI (RXF 393 renal): 2.62 µM
GI50 (SF-268 CNS): 1.46 µM
TGI (SF-268 CNS): 3.83 µM
GI50 (SF-295 CNS): 2.9 µM
TGI (SF-295 CNS): 14.9 µM
GI50 (SF-539 CNS): 1.41 µM
TGI (SF-539 CNS): 3.05 µM
GI50 (SK-MEL-2 melanoma): 2.58 µM
TGI (SK-MEL-2 melanoma): 12.4 µM
GI50 (SK-MEL-28 melanoma): 1.52 µM
TGI (SK-MEL-28 melanoma): 3.45 µM
GI50 (SK-MEL-5 melanoma): 1.18 µM
TGI (SK-MEL-5 melanoma): 2.5 µM
GI50 (SK-OV-3 ovarian): 3.6 µM
TGI (SK-OV-3 ovarian): > 100 µM
GI50 (SN12C renal): 1.87 µM
TGI (SN12C renal): 9.55 µM
GI50 (SNB-75 CNS): 0.892 µM
TGI (SNB-75 CNS): 7.08 µM
GI50 (SR leukemia): 0.46 µM
TGI (SR leukemia): 8.79 µM
GI50 (SW-620 colon): 0.6 µM
TGI (SW-620 colon): 2.38 µM
GI50 (T-47D breast): 1.38 µM
TGI (T-47D breast): 6.12 µM
GI50 (TK-10 renal): 2.59 µM
TGI (TK-10 renal): 7.9 µM
GI50 (U251 CNS): 0.773 µM
TGI (U251 CNS): 2.12 µM
GI50 (UACC-257 melanoma): 1.63 µM
TGI (UACC-257 melanoma): 5.11 µM
GI50 (UACC-62 melanoma): 0.498 µM
TGI (UACC-62 melanoma): 2.16 µM
GI50 (UO-31 renal): 1.07 µM
TGI (UO-31 renal): 2.34 µM

N#Cc1c(N)n(C2OC(CO)C(O)C2O)c2ncnc(N)c12 (stereo unspecified)
TGI (786-0 renal): 5.55 µM
TGI (ACHN renal): 0.417 µM
TGI (BT-549 breast): 2.13 µM
TGI (CAKI-1 renal): 0.263 µM
TGI (CCRF-CEM leukemia): 1.34 µM
TGI (COLO 205 colon): 0.191 µM
TGI (DU-145 prostate): > 17.4 µM
TGI (EKVX NSCLC): > 100 µM
GI50 (HCC-2998 colon): 0.145 µM
TGI (HCC-2998 colon): 0.509 µM
TGI (HCT-116 colon): > 7.59 µM
TGI (HCT-15 colon): 0.164 µM
TGI (HOP-62 NSCLC): 2.39 µM
TGI (HOP-92 NSCLC): > 100 µM
TGI (HS 578T breast): 2.16 µM
TGI (HT29 colon): > 100 µM
TGI (IGROV1 ovarian): > 100 µM
TGI (K-562 leukemia): > 20.2 µM
TGI (KM12 colon): 1.98 µM
TGI (LOX IMVI melanoma): 0.0595 µM
TGI (M14 melanoma): 0.265 µM
TGI (MALME-3M melanoma): 0.161 µM
TGI (MCF7 breast): 1.21 µM
TGI (MDA-MB-231 breast): > 8.22 µM
TGI (MDA-MB-435): 0.0891 µM
TGI (MOLT-4 leukemia): 0.163 µM
TGI (NCI-H226 lung): 0.372 µM
TGI (NCI-H23 lung): 0.206 µM
TGI (NCI/ADR-RES ovarian): 0.137 µM
TGI (OVCAR-3 ovarian): 0.156 µM
TGI (OVCAR-4 ovarian): > 100 µM
TGI (OVCAR-5 ovarian): 3.28 µM
TGI (OVCAR-8 ovarian): 0.279 µM
TGI (PC-3 prostate): 0.578 µM
TGI (RPMI-8226 leukemia): 3.59 µM
TGI (RXF 393 renal): 1.33 µM
TGI (SF-268 CNS): 1.81 µM
TGI (SF-295 CNS): 2.45 µM
TGI (SF-539 CNS): 0.417 µM
TGI (SK-MEL-28 melanoma): 0.432 µM
TGI (SK-MEL-5 melanoma): 0.279 µM
TGI (SN12C renal): 0.856 µM
TGI (SNB-19 CNS): > 84.2 µM
TGI (SNB-75 CNS): 3.56 µM
TGI (SR leukemia): 0.0474 µM
TGI (T-47D breast): 0.221 µM
TGI (U251 CNS): > 78.2 µM
TGI (UACC-257 melanoma): 0.574 µM
TGI (UACC-62 melanoma): 0.0941 µM
